As usually defined, the vapor or sublimation pressure is the equilibrium pressure above the liquid or solid.

Structures are written as SMILES. Numbers after ± are expanded uncertainties.

For the data set the following is noted: Liquid, Ebulliometric method (Recirculating still).

Take `CC#N` [acetonitrile]: the “vapor or sublimation pressure” value (295.25 K) worked out at 10 ± 0.3 kPa and the “vapor or sublimation pressure” value (295.4 K) worked out at 10 ± 0.3 kPa.

The values above are taken from the NIST ThermoML archive (doi:10.1021/acs.jced.7b00005).
